Reference: patent US20090048160A1, “Antimicrobial activity of bovine bactericidal/permeability-increasing protein (BPI)-derived peptides against Gram-negative bacterial mastitis isolates” (priority 2007, published 2009)
Ends that are not written are not given here.

Tests used:
[1] = tested on: bacterial LPS derived from E. coli 0111:B4; assay: LPS neutralization, Limulus amebocyte lysate (LAL) assay; format: biochemical; details: 1 ng LPS; for inhibition of LPS activity: 30 min
Method: FIG. 1 depicts the mean (±S.E.) percent neutralization of bacterial LPS bioactivity as determined with the Limulus amebocyte lysate assay. Increasing concentrations of peptides or polymixin B were incubated with 1 ng of E. coli-derived LPS for 30 min. Following incubation, the amount of free LPS was determined by extrapolation from a standard curve and the percent of bound (neutralized) LPS was calculated.
The ability of the peptides to neutralize LPS was determined using a commercially available Limulus amebocyte lysate (LAL) assay (Cambrex BioScience Walkersville, Inc., Walkersville, Md.). As a positive control, polymyxin B (Sigma Chemical Co.) was evaluated in parallel with the peptides. Increasing concentrations of peptides or polymyxin B were incubated with 1 ng of highly purified bacterial LPS (Sigma Chemical Co.), derived from E. coli 0111:B4, in a 500 μl reaction volume of endotoxin-free water for 30 min at 37° C. while shaking at 100 rpm. Following the incubation, the amount of free LPS was determined in each sample according to the manufacturer's instructions. Briefly, 50 μl of the above mixture was placed into a 96-well microtiter plate and the reaction initiated by the addition of an equal volume of amoebocyte lysate. Following an incubation at 37° C. for 10 min, 100 μl of chromogenic substrate was added and the plate incubated for 5-10 min at 37° C. The reaction was stopped by the addition of 50 μl of glacial acetic acid and the absorbance measured at a wavelength of 405 nm on a microplate reader (Biotec Instruments, Inc., Winooski, Vt.). The amount of non-bound LPS was extrapolated from a standard curve and the percent inhibition calculated according to the following formula: […]
To determine whether the bBPI peptides were able to neutralize LPS, increasing concentrations of the peptides were incubated with LPS (1 ng) and the resulting mixture assayed with the LAL assay (FIG. 1). As a positive and negative control, respectively, polymyxin B and a non-BPI-derived peptide were also assayed. […] In contrast, bBPI142-169 and bBPI90-99,148-161 were able to neutralize ≧93% of LPS activity at peptide concentrations of 30 and 100 μg/ml, respectively.

Escherichia coli = assay: microbe, parasite or virus in culture; format: cell-based
From the text: (§1) Bacterial isolates of Escherichia coli, Klebsiella pneumonia, Serratia marcescens, Pseudomonas aeruginosa, Enterobacter cloacae, and Enterobacter aerogenes, which were obtained from clinical cases of bovine mastitis, were used to assess the bactericidal activity of peptides in a broth microdilution assay. Isolates were obtained from repositories at Cornell University (gift of Dr. Y. H. Schukken; Quality Milk Production Services Program, Cornell University, Ithaca N.Y.) and the USDA Beltsville Agricultural Research Center. […] A. J. Bramley, Institute for Animal Health, Compton Laboratory, Newbury, England), which was originally isolated from a clinical case of mastitis ([…]. Dairy Res. 43: 205-211) was also used to assess the bactericidal activity of the peptides in biological fluids. Reference strains of E. coli (ATCC 25922) and Staphylococcus aureus (ATCC 29213) were obtained from a commercial source (American Type Culture Collection (ATCC), Manassas, Va.). To obtain fresh inoculums for evaluation, a sterile loop of each bacterial glycerol stock was streaked on a blood agar plate. After an overnight incubation at 35° C., a single uniform colony was picked and sub-passaged by streaking on a new blood agar plate and incubating the plate overnight at 35° C. To evaluate the antimicrobial activity of the peptides against various clinical mastitis bacterial isolates, the minimum inhibitory concentration (MIC) and the minimum bactericidal concentration (MBC) of these peptides against the isolates were determined using a standardized broth microdilution assay. In addition to the mastitis isolates, E. coli (ATCC 25922) and S. aureus (ATCC 29213) reference strains were evaluated. […] The assays were performed in accordance with Clinical and Laboratory Standards Institute (CLSI) [formerly National Committee for Clinical Laboratory Standards (NCCLS)] guidelines (National Committee for Clinical Laboratory Standards. 1999. Methods for Determining Bacterial Activity of Antimicrobial Agents: Approved Guideline. Wayne, Pa.; National Committee for Clinical Laboratory Standards. 2002. Performance Standards for Antimicrobial Disk and Dilution Susceptibility Tests for Bacteria Isolated from Animals: Approved Standard. 2nd Edition, Wayne, Pa.). […] The bacterial suspension was then diluted 100-fold in cation-adjusted Mueller-Hinton broth to reach a final inoculum concentration of 10^6 CFU/ml. […] A negative control column was included in the plate that included 100 μl of broth alone. The plates were incubated for 18 h at 35° C. with ambient air circulation and without shaking. The wells were subsequently inspected for cloudiness and pellet formation using a magnifying glass plate reader. The lowest concentration at which no pellet or cloudiness was apparent in a given well was identified as the MIC. […] The plates were incubated overnight at 35° C. and colonies subsequently enumerated. The MBC values were determined as the lowest concentration at which ≧99.9% of inoculated bacteria were killed. All assays were performed in triplicate and the MIC and MBC range reported.

Klebsiella pneumoniae = assay: microbe, parasite or virus in culture; format: cell-based
From the text: as §1

| Sequence | inhibition of LPS activity ([1]; 1 μg/ml) | inhibition of LPS activity ([1]; 30 μg/ml) [%] | MIC and MBC values (Escherichia coli) [µg/mL] | MIC and MBC values (Klebsiella pneumoniae) [µg/mL] | maximal inhibition of LPS activity ([1]; within the dose-response range tested) [%] | MBC (Escherichia coli) [µg/mL] | MIC (Escherichia coli) [µg/mL] | MBC (Klebsiella pneumoniae) [µg/mL] | MIC (Klebsiella pneumoniae) [µg/mL] |
| --- | --- | --- | --- | --- | --- | --- | --- | --- | --- |
| KWKARKNFIKGSSLGWLIQLFRKR [bBPI90-99,148-161] | no inhibition | 74 | ≤ 64 | ≤ 64 |  |  |  |  |  |
| VRIHISGSSLGWLIQLFRKRIESLLQKS [bBPI142-169] | approximately 20% |  |  |  |  |  |  |  |  |
| NSQIRPLPDKGLDLSIRDASIKIRGKWKARKNFIK [bBPI65-99] | approximately 20% |  |  |  | 50 | >256 | >256 | >256 | >256 |
